Drawing on patent US10266526B2, “Substituted 1,2,3-triazoles as SMYD inhibitors for treating cancer” (EPIZYME, INC., priority 2014, dated 2019), this text covers IC50 for 42 compounds.

Where a name gives a salt, the structure may show the parent alone.

SMYD3, sequence (Q9H7B4 whole entry): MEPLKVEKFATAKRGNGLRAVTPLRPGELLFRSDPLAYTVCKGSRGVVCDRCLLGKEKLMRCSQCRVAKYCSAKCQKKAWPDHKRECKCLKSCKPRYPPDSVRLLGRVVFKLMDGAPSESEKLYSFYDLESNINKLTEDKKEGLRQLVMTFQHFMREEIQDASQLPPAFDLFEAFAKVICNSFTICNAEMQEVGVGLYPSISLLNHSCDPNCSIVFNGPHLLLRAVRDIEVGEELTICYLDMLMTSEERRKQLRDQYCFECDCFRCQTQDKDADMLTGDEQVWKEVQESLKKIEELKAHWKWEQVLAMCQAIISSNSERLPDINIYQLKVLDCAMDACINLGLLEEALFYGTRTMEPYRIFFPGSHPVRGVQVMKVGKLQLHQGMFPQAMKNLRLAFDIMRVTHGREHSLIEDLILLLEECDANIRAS

The first assay concerns the target SMYD3 (Homo sapiens (Human), UniProt Q9H7B4). Description: SMYD3 biochemical assay (SMYD3 enzyme assay on MEKK2 protein substrate, 3H-SAM scintillation proximity assay). As to conditions: Table 1A; average of n = 1 to n = 50; read-out: SMYD3 Biochem IC50. The procedure, abridged:
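Detection used scintillation proximity beads to capture ³H-methylated GST-MEKK2 after quench with 100 uM final cold SAM. The reaction was started by SAM/MEKK2 addition after a 30 min RT compound–enzyme preincubation. Enzyme was tag-free full-length human SMYD3 from E. coli, in buffer of 25 mM Tris-Cl pH 8.0, 1 mM TCEP, 0.005% BSG, 0.005% Tween 20.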
In general terms: Scintillation proximity formats need no separation of bound from free tracer.
For orientation: IC50 means the midpoint of a concentration-inhibition curve. For the compound `CC(NC(=O)c1cn(CC(N)=O)nn1)C1CCN(C(=O)[C@H](C)N)CC1` (stereo partly drawn) [compound 534, N-(1-(1-(L-alanyl)piperidin-4-yl)ethyl)-1-(2-amino-2-oxoethyl)-1H-1,2,3-triazole-4-carboxamide], the half-maximal inhibitory concentration (IC50) is over 50 µM.

For the compound `CCc1cnc(C(=O)NC(C)C2CCN(C(=O)[C@H](C)N)CC2)s1` (stereo partly drawn) [compound 552, N-(1-(1-(L-alanyl)piperidin-4-yl)ethyl)-5-ethylthiazole-2-carboxamide], the IC50 was 6.44 µM. Same read-out and setting: in the case of `Nc1nc(C(=O)N[C@H]2CC[C@H](N)CC2)c[nH]1` [compound 572, 2-amino-N-((1r,4r)-4-aminocyclohexyl)-1H-imidazole-4-carboxamide] it was over 10 µM.

The same assay, now with this note: read-out: SMYD3 Biochem IC50.
As for `CC(NC(=O)c1cc2ccccc2[nH]1)C1CCN(C(=O)[C@H](C)N)CC1` (stereo partly drawn) [compound 232, N-(1-(1-(L-alanyl)piperidin-4-yl)ethyl)-1H-indole-2-carboxamide], the half-inhibitory concentration (IC50) is over 100 µM. Consider `CC(NC(=O)c1cn2ccsc2n1)C1CCN(C(=O)[C@H](C)N)CC1` (stereo partly drawn) [compound 239, N-(1-(1-(L-alanyl)piperidin-4-yl)ethyl)imidazo[2,1-b]thiazole-6-carboxamide], for which the IC50 is over 100 µM. Still for that read-out and setting: in the case of `NCCC(=O)N[C@H]1CC[C@H](NC(=O)c2ccc(O)cn2)CC1` [compound 361, N-((1r,4r)-4-(3-aminopropanamido)cyclohexyl)-5-hydroxypicolinamide] it was over 100 µM; in that of `Cc1cc(C)c(C(=O)NC(C)C2CCN(C(=O)[C@H](C)N)CC2)c(=O)[nH]1` (stereo partly drawn) [compound 274, N-(1-(1-(L-alanyl)piperidin-4-yl)ethyl)-4,6-dimethyl-2-oxo-1,2-dihydropyridine-3-carboxamide], over 100 µM. For the compound `NCCC(=O)N[C@H]1CC[C@H](NC(=O)c2cc[n+]([O-])cc2)CC1` [compound 264, 4-(((1r,4r)-4-(3-aminopropanamido)cyclohexyl)carbamoyl)pyridine 1-oxide], the IC50 was over 100 µM.

In the case of `Cc1nscc1C(=O)N[C@H]1CC[C@H](N)CC1` [compound 348, N-((1r,4r)-4-aminocyclohexyl)-3-methylisothiazole-4-carboxamide], the IC50 is over 100 µM. On the same count and under the same terms, as for `Cn1nccc1C(=O)N[C@H]1CC[C@H](NC(=O)CCN)CC1` [compound 414, N-((1r,4r)-4-(3-aminopropanamido)cyclohexyl)-1-methyl-1H-pyrazole-5-carboxamide], the figure is over 100 µM. For the compound `NCCC(=O)N1CCC(CC(=O)N2CCC3NC(=O)CC3C2)CC1` (stereo not drawn) [compound 483, 5-(2-(1-(3-aminopropanoyl)piperidin-4-yl)acetyl)octahydro-2H-pyrrolo[3,2-c]pyridin-2-one], the IC50 was 10.2 µM.

Regarding `Cc1nscc1C(=O)NC(C)C1CCN(C(=O)[C@H](C)N)CC1` (stereo partly drawn) [compound 258, N-(1-(1-(L-alanyl)piperidin-4-yl)ethyl)-3-methylisothiazole-4-carboxamide], the IC50 was over 100 µM. With `Cc1cnc(C(=O)N[C@H]2CC[C@H](N)CC2)cn1` [compound 186, N-((1r,4r)-4-aminocyclohexyl)-5-methylpyrazine-2-carboxamide], the IC50 is over 100 µM. For the compound `NCCC(=O)N[C@H]1CC[C@H](NC(=O)c2cncnc2N)CC1` [compound 420, 4-amino-N-((1r,4r)-4-(3-aminopropanamido)cyclohexyl)pyrimidine-5-carboxamide], the 50% inhibitory concentration (IC50) is over 100 µM. On to `NCCC(=O)N[C@H]1CC[C@H](NC(=O)c2nccc3ccccc23)CC1` [compound 196, N-((1r,4r)-4-(3-aminopropanamido)cyclohexyl)isoquinoline-1-carboxamide], for which the IC50 is over 100 µM. As for `Cc1ccc(C(=O)N[C@H]2CC[C@H](NC(=O)CCN)CC2)cn1` [compound 382, N-((1r,4r)-4-(3-aminopropanamido)cyclohexyl)-6-methylnicotinamide], the 50% inhibitory concentration (IC50) is over 100 µM. Take `CC(NC(=O)c1nc2ccccc2s1)C1CCN(C(=O)[C@H](C)N)CC1` (stereo partly drawn) [compound 395, N-(1-(1-(L-alanyl)piperidin-4-yl)ethyl)benzo[d]thiazole-2-carboxamide]: the IC50 was over 100 µM.

As to `CC(=O)Nc1ccc(C(=O)NC(C)C2CCN(C(=O)[C@H](C)N)CC2)nc1` (stereo partly drawn) [compound 462, N-(1-(1-(L-alanyl)piperidin-4-yl)ethyl)-5-acetamidopicolinamide], the IC50 is over 100 µM.

As for `N[C@H]1CC[C@H](NC(=O)c2cc3ccccc3[nH]2)CC1` [compound 234, N-((1r,4r)-4-aminocyclohexyl)-1H-indole-2-carboxamide], the concentration for half-maximal inhibition (IC50) was over 100 µM. As for `Cc1cncc(C(=O)NC(C)C2CCN(C(=O)[C@H](C)N)CC2)c1` (stereo partly drawn) [compound 256, N-(1-(1-(L-alanyl)piperidin-4-yl)ethyl)-5-methylnicotinamide], the IC50 was 61.6 µM. With `Cc1nc2ccccc2c(C(=O)N[C@H]2CC[C@H](N)CC2)c1N` [compound 458, 3-amino-N-((1r,4r)-4-aminocyclohexyl)-2-methylquinoline-4-carboxamide], the half-inhibitory concentration (IC50) was over 100 µM.

Consider `NCCC(=O)N[C@H]1CC[C@H](NC(=O)Cc2ccc(F)cc2)CC1` [compound 207, 3-amino-N-((1r,4r)-4-(2-(4-fluorophenyl)acetamido)cyclohexyl)propanamide], for which the IC50 was over 100 µM.

On to `Nc1ncncc1C(=O)N[C@H]1CC[C@H](N)CC1` [compound 421, 4-amino-N-((1r,4r)-4-aminocyclohexyl)pyrimidine-5-carboxamide], for which the IC50 was over 100 µM. In the case of `CC(NC(=O)c1cnccc1N)C1CCN(C(=O)[C@H](C)N)CC1` (stereo partly drawn) [compound 247, N-(1-(1-(L-alanyl)piperidin-4-yl)ethyl)-4-aminonicotinamide], the IC50 is over 100 µM. In the case of `Cc1cnc(C(=O)N[C@H]2CC[C@H](NC(=O)CCN)CC2)cn1` [compound 215, N-((1r,4r)-4-(3-aminopropanamido)cyclohexyl)-5-methylpyrazine-2-carboxamide], the IC50 is over 100 µM. As for `CC1=NN(c2ccc(C(=O)N[C@H]3CC[C@H](NC(=O)CCN)CC3)cc2)C(=O)C1` [compound 432, N-((1r,4r)-4-(3-aminopropanamido)cyclohexyl)-4-(3-methyl-5-oxo-4,5-dihydro-1H-pyrazol-1-yl)benzamide], the IC50 turned out to be 37 µM.

For the compound `Cc1cnccc1C(=O)N[C@H]1CC[C@H](NC(=O)CCN)CC1` [compound 379, N-((1r,4r)-4-(3-aminopropanamido)cyclohexyl)-3-methylisonicotinamide], the concentration for half-maximal inhibition (IC50) was over 100 µM. In the case of `CC(NC(=O)c1ccc2c(c1)no[n+]2[O-])C1CCN(C(=O)[C@H](C)N)CC1` (stereo partly drawn) [compound 236, 5-((1-(1-(L-alanyl)piperidin-4-yl)ethyl)carbamoyl)benzo[c][1,2,5]oxadiazole 1-oxide], the half-inhibitory concentration (IC50) is over 100 µM. Take `N[C@H]1CC[C@H](NC(=O)c2cc(O)nc3ccccc23)CC1` [compound 201, N-((1r,4r)-4-aminocyclohexyl)-2-hydroxyquinoline-4-carboxamide]: the IC50 was over 100 µM. On to `CC(NC(=O)c1ccc(N2CCCC2)cc1)C1CCN(C(=O)[C@H](C)N)CC1` (stereo partly drawn) [compound 227, N-(1-(1-(L-alanyl)piperidin-4-yl)ethyl)-4-(pyrrolidin-1-yl)benzamide], for which the IC50 came to 29.2 µM.

As for `N[C@H]1CC[C@H](NC(=O)Cc2cc(F)cc(F)c2)CC1` [compound 362, N-((1r,4r)-4-aminocyclohexyl)-2-(3,5-difluorophenyl)acetamide], the IC50 was over 100 µM. Consider `NCCC(=O)N[C@H]1CC[C@H](NC(=O)c2n[nH]c3ccccc23)CC1` [compound 425, N-((1r,4r)-4-(3-aminopropanamido)cyclohexyl)-1H-indazole-3-carboxamide], for which the IC50 was 37.5 µM.

Staying with this assay, now noted: read-out: SMYD3 Biochem IC50 (μM)*.
In the case of `CC(NC(=O)c1ccc2c(c1)CC(=O)N2)C1CCN(C(=O)[C@@H](C)N)CC1` (stereo partly drawn) [compound 87, N-(1-(1-(D-alanyl)piperidin-4-yl)ethyl)-2-oxoindoline-5-carboxamide], the IC50 was found to be 9.37 µM. In the case of `N[C@H]1CC[C@H](NC(=O)c2cn(C3CC3)nn2)CC1` [compound 11, N-((1r,4r)-4-aminocyclohexyl)-1-cyclopropyl-1H-1,2,3-triazole-4-carboxamide], the concentration for half-maximal inhibition (IC50) was determined as 15.4 µM. For `CC(NC(=O)c1cncc(F)c1)C1CCN(C(=O)[C@H](C)N)CC1` (stereo partly drawn) [compound 157, N-(1-(1-(L-alanyl)piperidin-4-yl)ethyl)-5-fluoronicotinamide], the IC50 was over 100 µM. For the compound `NCC(=O)N[C@H]1CC[C@H](NC(=O)c2ccc3c(c2)CC(=O)N3)CC1` [compound 174, N-((1r,4r)-4-(2-aminoacetamido)cyclohexyl)-2-oxoindoline-5-carboxamide], the 50% inhibitory concentration (IC50) was found to be 0.63 µM. `Cn1nc(N)cc1C(=O)N[C@H]1CC[C@H](N)CC1` [compound 48, 3-amino-N-((1r,4r)-4-aminocyclohexyl)-1-methyl-1H-pyrazole-5-carboxamide]: the 50% inhibitory concentration (IC50) worked out at 117 µM. In the case of `COc1ccc2cc(C(C)C(=O)N[C@H]3CC[C@H](N)CC3)ccc2c1` (stereo partly drawn) [compound 170, N-((1r,4r)-4-aminocyclohexyl)-2-(6-methoxynaphthalen-2-yl)propanamide], the IC50 is 76.4 µM. As for `N[C@H]1CC[C@H](NC(=O)c2ccc3ccccc3n2)CC1` [compound 164, N-((1r,4r)-4-aminocyclohexyl)quinoline-2-carboxamide], the half-inhibitory concentration (IC50) is over 100 µM.

In the case of `CC(N)C(=O)N[C@H]1CC[C@H](NC(=O)c2ccc3c(c2)CC(=O)N3)CC1` (stereo partly drawn) [compound 175, N-((1r,4r)-4-(2-aminopropanamido)cyclohexyl)-2-oxoindoline-5-carboxamide], the half-inhibitory concentration (IC50) was determined as 0.42 µM.

For `CCc1ncc(C(=O)NC(c2ccccc2)C2CCNCC2)s1` (stereo not drawn) [compound 60, 2-ethyl-N-(phenyl(piperidin-4-yl)methyl)thiazole-5-carboxamide], the IC50 stood at 150 µM.

Consider `O=C1Cc2cc(C(=O)NCC3CCNCC3)ccc2N1` [Cpd. No. 100, 2-oxo-N-(piperidin-4-ylmethyl)indoline-5-carboxamide Hydrochloride], for which the IC50 stood at 20 µM.
